From patent US20220169629A1, “PESTICIDALLY ACTIVE DIAZINE-AMIDE COMPOUNDS” (SYNGENTA CROP PROTECTION AG, priority 2019, published 2022)

Legend:
Type in all cases: in vivo
[1] = tested on: Spodoptera littoralis (Egyptian cotton leaf worm); experiment: Example B7: Spodoptera littoralis (Egyptian cotton leaf worm), sprayed cotton leaf discs, L1 larvae; conditions: foliar, 72 h, application rate of 200 ppm, 3 days after infestation, L1 larvae on cotton leaf discs, read-out: control in at least one of the three categories (mortality, anti-feeding or growth inhibition)
Description: Example B7: Spodoptera littoralis (Egyptian Cotton Leaf Worm)
Cotton leaf discs were placed onto agar in 24-well microtiter plates and sprayed with aqueous test solutions prepared from 10′000 ppm DMSO stock solutions. After drying the leaf discs were infested with five L1 larvae. The samples were assessed for mortality, anti-feeding effect, and growth inhibition in comparison to untreated samples 3 days after infestation. Control of Spodoptera littoralis by a test sample is given when at least one of the categories mortality, anti-feedant effect, and growth inhibition is higher than the untreated sample.

[2] = tested on: Chilo suppressalis (striped rice stemborer); experiment: Example B4: Chilo suppressalis (striped rice stemborer), artificial diet, L2 larvae; conditions: 144 h, application rate of 200 ppm, 6 days after infestation, L2 larvae on artificial diet, read-out: control in at least one of the three categories (mortality, anti-feeding or growth inhibition)
Description: Example B4: Chilo suppressalis (Striped rice stemborer)
24-well microtiter plates with artificial diet were treated with aqueous test solutions prepared from 10′000 ppm DMSO stock solutions by pipetting. After drying, the plates were infested with L2 larvae (6-8 per well). The samples were assessed for mortality, anti-feeding effect, and growth inhibition in comparison to untreated samples 6 days after infestation. Control of Chilo suppressalis by a test sample is given when at least one of the categories mortality, anti-feedant effect, and growth inhibition is higher than the untreated sample.

[3] = tested on: Diabrotica balteata (corn root worm); experiment: Example B1: Diabrotica balteata (corn root worm), sprayed maize sprouts, L2 larvae; conditions: 96 h, application rate of 200 ppm, 4 days after infestation, L2 larvae on maize sprouts, read-out: control in at least one of the two categories (mortality or growth inhibition)
Description: Example B1: Diabrotica Balteata (Corn Root Worm)
Maize sprouts placed onto an agar layer in 24-well microtiter plates were treated with aqueous test solutions prepared from 10′000 ppm DMSO stock solutions by spraying. After drying, the plates were infested with L2 larvae (6 to 10 per well). The samples were assessed for mortality and growth inhibition in comparison to untreated samples 4 days after infestation.

[4] = tested on: Plutella xylostella (diamond back moth); experiment: Example B5: Plutella xylostella (diamond back moth), artificial diet, 24-well, eggs; conditions: 192 h, application rate of 200 ppm, 8 days after infestation, read-out: control in at least one of the two categories (mortality or growth inhibition)
Description: Example B5: Plutella xylostella (Diamond Back Moth)
24-well microtiter plates with artificial diet were treated with aqueous test solutions prepared from 10′000 ppm DMSO stock solutions by pipetting. After drying, Plutella eggs were pipetted through a plastic stencil onto a gel blotting paper and the plate was closed with it. The samples were assessed for mortality and growth inhibition in comparison to untreated samples 8 days after infestation.

[5] = tested on: Plutella xylostella (diamondback moth); experiment: Example B10: Plutella xylostella (diamondback moth), 96-well artificial diet; conditions: 216 h, application rate of 500 ppm, 9 days after infestation, eggs/L1 larvae
Description: Example B10: Plutella xylostella (Diamondback Moth)
96-well microtiter plates containing artificial diet were treated with aqueous test solutions, prepared from 10′000 ppm DMSO stock solutions, by a liquid handling robot. After drying, eggs (˜30 per well) were infested onto a netted lid which was suspended above the diet. The eggs hatch and L1 larvae move down to the diet. The samples were assessed for mortality 9 days after infestation.

CC(NC(=O)c1cc(Br)cc(C(F)(F)F)c1)c1nccnc1-c1ccc(C#N)cn1 (stereo not shown) [Compound P10, 3-bromo-N-[1-[3-(5-cyano-2-pyridyl)pyrazin-2-yl]ethyl]-5-(trifluoromethyl)benzamide]
≥ 80%: percent control (mortality, anti-feeding or growth inhibition) at 200 ppm [1] | control at 200 ppm [2] | percent control (mortality or growth inhibition) at 200 ppm [3] | percent control (mortality or growth inhibition) at 200 ppm [4]

CC(NC(=O)c1cc(OCC(F)F)cc(C(F)(F)F)c1)c1nccnc1-c1ccc(OCC(F)(F)F)cn1 (stereo not shown) [Compound P17, 3-(2,2-difluoroethoxy)-N-[1-[3-[5-(2,2,2-trifluoroethoxy)-2-pyridyl]pyrazin-2-yl]ethyl]-5-(trifluoromethyl)benzamide]
≥ 80%: percent control (mortality, anti-feeding or growth inhibition) at 200 ppm [1] | mortality at 500 ppm [5] | percent control (mortality or growth inhibition) at 200 ppm [4]

CC(NC(=O)c1cc(Br)cc(C(F)(F)F)c1)c1nccnc1-c1ncc(OCC(F)(F)F)cn1 (stereo not shown) [Compound P9, 3-bromo-N-[1-[3-[5-(2,2,2-trifluoroethoxy)pyrimidin-2-yl]pyrazin-2-yl]ethyl]-5-(trifluoromethyl)benzamide]
≥ 80%: percent control (mortality, anti-feeding or growth inhibition) at 200 ppm [1] | control at 200 ppm [2] | percent control (mortality or growth inhibition) at 200 ppm [3] | percent control (mortality or growth inhibition) at 200 ppm [4]

CC(NC(=O)c1cc(Cl)cc(C(F)(F)F)c1)c1nccnc1-c1ccc(OC(F)F)cn1 (stereo not shown) [Compound P8, 3-chloro-N-[1-[3-[5-(difluoromethoxy)-2-pyridyl]pyrazin-2-yl]ethyl]-5-(trifluoromethyl)benzamide]
≥ 80%: percent control (mortality, anti-feeding or growth inhibition) at 200 ppm [1] | control at 200 ppm [2] | percent control (mortality or growth inhibition) at 200 ppm [3] | percent control (mortality or growth inhibition) at 200 ppm [4]

CC(NC(=O)c1cc(Br)cc(C(F)(F)F)c1)c1nccnc1-c1ccc(OC(F)F)cn1 (stereo not shown) [Compound P11, 3-bromo-N-[1-[3-[5-(difluoromethoxy)-2-pyridyl]pyrazin-2-yl]ethyl]-5-(trifluoromethyl)benzamide]
≥ 80%: percent control (mortality, anti-feeding or growth inhibition) at 200 ppm [1] | control at 200 ppm [2] | percent control (mortality or growth inhibition) at 200 ppm [3] | percent control (mortality or growth inhibition) at 200 ppm [4]

CC(NC(=O)c1cc(OC(F)F)cc(C(F)(F)F)c1)c1nccnc1-c1ccc(OCC(F)(F)F)cn1 (stereo not shown) [Compound P12, 3-(difluoromethoxy)-N-[1-[3-[5-(2,2,2-trifluoroethoxy)-2-pyridyl]pyrazin-2-yl]ethyl]-5-(trifluoromethyl)benzamide]
≥ 80%: percent control (mortality, anti-feeding or growth inhibition) at 200 ppm [1] | control at 200 ppm [2] | mortality at 500 ppm [5] | percent control (mortality or growth inhibition) at 200 ppm [4]

CC(NC(=O)c1cc(Cl)cc(C(F)(F)F)c1)c1nccnc1-c1ncc(OCC(F)F)cn1 (stereo not shown) [Compound P36, 3-chloro-N-[1-[3-[5-(2,2-difluoroethoxy)pyrimidin-2-yl]pyrazin-2-yl]ethyl]-5-(trifluoromethyl)benzamide]
≥ 80%: percent control (mortality, anti-feeding or growth inhibition) at 200 ppm [1] | percent control (mortality or growth inhibition) at 200 ppm [4]

CC(NC(=O)c1cc(Br)cc(C(F)(F)F)c1)c1nccnc1-c1ccc(OCC(F)(F)F)cn1 (stereo not shown) [Compound P18, 3-bromo-N-[1-[3-[5-(2,2,2-trifluoroethoxy)-2-pyridyl]pyrazin-2-yl]ethyl]-5-(trifluoromethyl)benzamide]
≥ 80%: percent control (mortality, anti-feeding or growth inhibition) at 200 ppm [1] | control at 200 ppm [2] | mortality at 500 ppm [5] | percent control (mortality or growth inhibition) at 200 ppm [4]

CC(NC(=O)c1cc(OCC(F)(F)F)cc(C(F)(F)F)c1)c1nccnc1-c1ccc(OC(F)F)cn1 (stereo not shown) [Compound P6, N-[1-[3-[5-(difluoromethoxy)-2-pyridyl]pyrazin-2-yl]ethyl]-3-(2,2,2-trifluoroethoxy)-5-(trifluoromethyl)benzamide]
≥ 80%: percent control (mortality, anti-feeding or growth inhibition) at 200 ppm [1] | control at 200 ppm [2] | percent control (mortality or growth inhibition) at 200 ppm [3] | percent control (mortality or growth inhibition) at 200 ppm [4]

CC(NC(=O)c1cc(OCC(F)(F)F)cc(C(F)(F)F)c1)c1nccnc1-c1ncc(OCC(F)F)cn1 (stereo not shown) [Compound P38, N-[1-[3-[5-(2,2-difluoroethoxy)pyrimidin-2-yl]pyrazin-2-yl]ethyl]-3-(2,2,2-trifluoroethoxy)-5-(trifluoromethyl)benzamide]
≥ 80%: percent control (mortality, anti-feeding or growth inhibition) at 200 ppm [1] | control at 200 ppm [2] | percent control (mortality or growth inhibition) at 200 ppm [4]

CC(NC(=O)c1cc(C(F)(F)F)cc(C(F)(F)F)c1)c1nccnc1-c1ccc(C#N)cn1 (stereo not shown) [Compound P31, N-[1-[3-(5-cyano-2-pyridyl)pyrazin-2-yl]ethyl]-3,5-bis(trifluoromethyl)benzamide]
≥ 80%: percent control (mortality, anti-feeding or growth inhibition) at 200 ppm [1] | control at 200 ppm [2] | mortality at 500 ppm [5] | percent control (mortality or growth inhibition) at 200 ppm [4]

CC(NC(=O)c1cc(Cl)cc(C(F)(F)F)c1)c1nccnc1-c1ccc(OCC(F)F)cn1 (stereo not shown) [Compound P20, 3-chloro-N-[1-[3-[5-(2,2-difluoroethoxy)-2-pyridyl]pyrazin-2-yl]ethyl]-5-(trifluoromethyl)benzamide]
≥ 80%: percent control (mortality, anti-feeding or growth inhibition) at 200 ppm [1] | control at 200 ppm [2] | mortality at 500 ppm [5] | percent control (mortality or growth inhibition) at 200 ppm [4]

CC(NC(=O)c1cc(OCC(F)F)cc(C(F)(F)F)c1)c1nccnc1-c1ncc(OCC(F)F)cn1 (stereo not shown) [Compound P32, 3-(2,2-difluoroethoxy)-N-[1-[3-[5-(2,2-difluoroethoxy)pyrimidin-2-yl]pyrazin-2-yl]ethyl]-5-(trifluoromethyl)benzamide]
≥ 80%: percent control (mortality, anti-feeding or growth inhibition) at 200 ppm [1] | control at 200 ppm [2] | percent control (mortality or growth inhibition) at 200 ppm [4]

CC(NC(=O)c1cc(OC(F)F)cc(C(F)(F)F)c1)c1nccnc1-c1ccc(OC(F)F)cn1 (stereo not shown) [Compound P4, 3-(difluoromethoxy)-N-[1-[3-[5-(difluoromethoxy)-2-pyridyl]pyrazin-2-yl]ethyl]-5-(trifluoromethyl)benzamide]
≥ 80%: percent control (mortality, anti-feeding or growth inhibition) at 200 ppm [1] | control at 200 ppm [2] | percent control (mortality or growth inhibition) at 200 ppm [3] | percent control (mortality or growth inhibition) at 200 ppm [4]

CC(NC(=O)c1cc(OCC(F)F)cc(C(F)(F)F)c1)c1nccnc1-c1ccc(OC(F)F)cn1 (stereo not shown) [Compound P2, 3-(2,2-difluoroethoxy)-N-[1-[3-[5-(difluoromethoxy)-2-pyridyl]pyrazin-2-yl]ethyl]-5-(trifluoromethyl)benzamide]
≥ 80%: percent control (mortality, anti-feeding or growth inhibition) at 200 ppm [1] | control at 200 ppm [2] | percent control (mortality or growth inhibition) at 200 ppm [4]

CC(NC(=O)c1cc(OCC(F)(F)F)cc(C(F)(F)F)c1)c1nccnc1-c1ccc(OCC(F)(F)F)cn1 (stereo not shown) [Compound P14, 3-(2,2,2-trifluoroethoxy)-N-[1-[3-[5-(2,2,2-trifluoroethoxy)-2-pyridyl]pyrazin-2-yl]ethyl]-5-(trifluoromethyl)benzamide]
≥ 80%: control at 200 ppm [2] | mortality at 500 ppm [5] | percent control (mortality or growth inhibition) at 200 ppm [4]

CC(NC(=O)c1cc(Cl)cc(C(F)(F)F)c1)c1nccnc1-c1ccc(C#N)cn1 (stereo not shown) [Compound P7, 3-chloro-N-[1-[3-(5-cyano-2-pyridyl)pyrazin-2-yl]ethyl]-5-(trifluoromethyl)benzamide]
≥ 80%: percent control (mortality, anti-feeding or growth inhibition) at 200 ppm [1] | control at 200 ppm [2] | percent control (mortality or growth inhibition) at 200 ppm [3] | percent control (mortality or growth inhibition) at 200 ppm [4]
